Measurements: patent US8212031B2, “Pyrrolotriazine kinase inhibitors” (Bristol-Myers Squibb Company, priority 2008, dated 2012)

molecular target: IGF1-receptor (Homo sapiens, UniProt P08069); assay: IGF1-Receptor Tyrosine Kinase Assay; format: biochemical; settings: in vitro kinase assay; ATP 25 μM; FL-peptide 1.5 μM; IGF1-Receptor 14 nM; 60 min room temperature; Caliper LabChip 3000; read-out: IGF1R kinase IC50
Description: A IGF1-Receptor Tyrosine Kinase Assay
The assays were performed in U-bottom 384-well plates. The final assay volume was 30 μl prepared from 15 μl additions of enzyme and substrates (fluoresceinated IGF1R substrate peptide and ATP) and test compounds in assay buffer (100 mM HEPES pH 7.4, 10 mM MnCl2, 0.015% Brij35 and 4 mM DTT). The reaction was initiated by the combination of IGF1-receptor with substrates and test compounds. The reaction was incubated at room temperature for 60 min. and terminated by adding 30 μl of 35 mM EDTA to each sample. The reaction mixture was analyzed on the Caliper LabChip 3000 by electrophoretic separation of the fluorescent substrate and phosphorylated product Inhibition data were calculated by comparison to no enzyme control reactions for 100% inhibition and vehicle-only reactions for 0% inhibition. The final concentration of reagents in the assays are ATP, 25 μM; FL-peptide, 1.5 μM; IGF1-Receptor, 14 nM; and DMSO, 1.6%. Dose response curves were generated to determine the concentration required inhibiting 50% of kinase activity (IC50). Compounds were dissolved at 10 mM in dimethylsulfoxide (DMSO) and evaluated at eleven concentrations, each in duplicate. IC50 values were derived by non-linear regression analysis.

Sequence of IGF1-receptor (P08069 31-1367): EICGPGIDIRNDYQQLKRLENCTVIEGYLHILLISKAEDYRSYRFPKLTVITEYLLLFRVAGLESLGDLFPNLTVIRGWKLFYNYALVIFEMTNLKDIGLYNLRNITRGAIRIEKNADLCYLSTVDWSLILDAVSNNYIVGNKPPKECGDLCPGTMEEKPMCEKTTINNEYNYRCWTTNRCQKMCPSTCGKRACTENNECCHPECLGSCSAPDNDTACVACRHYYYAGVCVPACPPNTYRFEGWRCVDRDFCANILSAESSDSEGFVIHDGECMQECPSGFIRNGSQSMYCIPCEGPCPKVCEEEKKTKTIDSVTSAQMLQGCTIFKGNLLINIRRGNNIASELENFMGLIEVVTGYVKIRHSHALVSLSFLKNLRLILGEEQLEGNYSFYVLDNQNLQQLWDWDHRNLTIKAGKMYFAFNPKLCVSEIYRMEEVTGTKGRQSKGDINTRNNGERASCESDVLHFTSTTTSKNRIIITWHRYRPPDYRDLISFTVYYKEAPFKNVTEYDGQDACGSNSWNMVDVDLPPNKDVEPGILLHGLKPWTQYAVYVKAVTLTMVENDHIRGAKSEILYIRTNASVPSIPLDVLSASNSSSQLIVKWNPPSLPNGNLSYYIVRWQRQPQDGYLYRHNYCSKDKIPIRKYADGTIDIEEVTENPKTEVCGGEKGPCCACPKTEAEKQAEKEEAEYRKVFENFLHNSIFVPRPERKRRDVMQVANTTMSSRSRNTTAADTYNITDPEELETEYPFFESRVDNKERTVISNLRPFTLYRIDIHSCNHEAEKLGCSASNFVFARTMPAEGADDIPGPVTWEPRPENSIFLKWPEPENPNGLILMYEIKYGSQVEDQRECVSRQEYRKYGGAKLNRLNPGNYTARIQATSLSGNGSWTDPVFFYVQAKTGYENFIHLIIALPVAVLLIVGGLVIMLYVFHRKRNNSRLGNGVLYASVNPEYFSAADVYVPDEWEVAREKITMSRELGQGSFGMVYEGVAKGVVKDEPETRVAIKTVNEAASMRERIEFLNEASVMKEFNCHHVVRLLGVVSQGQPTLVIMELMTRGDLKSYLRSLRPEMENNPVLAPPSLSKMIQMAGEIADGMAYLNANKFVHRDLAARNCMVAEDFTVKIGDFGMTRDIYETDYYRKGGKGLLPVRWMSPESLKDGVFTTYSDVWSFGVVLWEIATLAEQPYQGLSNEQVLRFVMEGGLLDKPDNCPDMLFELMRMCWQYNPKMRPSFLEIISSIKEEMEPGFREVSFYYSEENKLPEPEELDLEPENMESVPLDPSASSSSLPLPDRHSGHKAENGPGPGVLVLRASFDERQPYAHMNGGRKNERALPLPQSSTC

Compared with O=C(c1nccs1)N1CCCCN1c1nc(Nc2cc(C3CC3)n[nH]2)c2cccn2n1 [Example 4], O=C(Nc1nccs1)N1CCCCN1c1nc(Nc2cc(C3CC3)n[nH]2)c2cccn2n1 [Example 3] is 31-fold lower in IC50: 62 nM for the first, 2 nM for the second.

O=C(Nc1ccc(F)nc1)N1CCCCN1c1nc(Nc2cc(C3CC3)n[nH]2)c2cccn2n1 [Example 2] showed an IC50 of 20 nM.
